These results are taken from patent publication US20210010089A1, “TUMOR MINIMAL RESIDUAL DISEASE STRATIFICATION” (VIB VZW, priority 2018, published 2021).

One test concerns MM052 melanoma cells. The experiment in a line: Colony assay and Cell Titer Glo assay in short culture melanoma line. On the technique in general: In ATP-based viability assays light output follows the ATP content of the culture.
Test [1] deals with GFRA2-positive MEL006 cells. The experiment in a line: FACS of GFRA2-positive cells (NDTCs) in MEL006 cultures.
Experimental: Cells were resuspended in FACS sorting buffer (culture medium supplied with 1% EDTA 100 mM).
The subject of a further test is RAR. The conditions noted are these: pan-RXR agonist; cited from earlier work.
Test [2] deals with NRAS-mutant cells (MM165). The experiment in a line: GFRA2 expression (RT-qPCR) in short-term melanoma culture. The conditions noted are these: NRAS-mutant culture exposed to both trametinib and bexarotene. For orientation: Quantitative PCR measures a nucleic acid by following its amplification.
Text: Cells resuspended in QiAzol using an miRNeasy Kit and processed according to the manufacturer's instructions (QIAGEN) or in RA1lysis buffer using the RNA NucleoSpin extraction kit (Macherey&Nagel).
Data processing with qbase+2.6 software (Biogazelle) relies on normalization with a minimum of 2 reference genes, indicated as RefGen below.
For another test, the system named is wild-type cells (MM163). The description is as above. It is filed as cell-based, human. The settings on record: triple wild-type culture exposed to both trametinib and bexarotene. The source says: C) wild-type cells (MM163).
For test [3], the system named is MRD subpopulation gene signatures. The experiment in a line: Analysis of available RNASeq data of melanoma patients on immunotherapy (Riaz et al. 2017). Further details: species or system human. The conditions noted are these: patient subgroups SD+PD versus CR+PR; results not shown. An excerpt:
Although the therapy selecting for these 4 MRD-stage subpopulations as applied in the Examples herein relies on combined inhibition of BRAF and MEK kinases, it can be envisaged that other therapeutic modalities also give rise to the emergence of the same or some of these 4 MRD-stage subpopulations. […] Likewise, targeted therapies of cancers other than melanoma can lead to a MRD phase during which one or more of the MRD subpopulations as identified herein for melanoma are present. Such targeted therapies include e.g. anti-VEGF (bevacizumab), anti-EGFR (cetuximab, erlotinib), mTOR inhibition (everolimus), Tyr-kinase inhibitor/anti-EGFR (gefitinib), Tyr-kinase inhibition/BCR-ABL inhibition (imatinib), anti-HER2/anti-EGFR (lapatinib), and Tyr-kinase inhibition (sorafenib, sunitinib). On the one hand, as described above, different therapies targeting melanoma can be expected to induce all or part of the minimal residual disease tumor subpopulations as described herein. On the other hand, it can be envisaged that inhibition of the MAPK-pathway (with BRAF and/or MEK inhibitors) is inducing in cancers or tumors different from melanoma one or more minimal residual disease tumor subpopulations as described herein for melanoma.

Experimental for MM052 melanoma cells: Cells were grown to near confluency on 12well plates and treated with the indicated drug combinations for the indicated time period.
2500 cells were plated onto a 96well plate and treated with the indicated drug combinations for the indicated time period. Cell Titer Glo assay was performed according to the manufacturer's instruction (Promega) and luminescence was measured on a VictorX3 (Perkin Elmer).

Take `CN1c2ccc([N+](=O)[O-])cc2N=C(c2ccc(C(=O)O)cc2)c2cc3c(cc21)C(C)(C)CCC3(C)C` [HX531]: the “effect on sensitivity of MM52 cells to trametinib” value with MM052 melanoma cells (HX531 2 uM, trametinib 2 nM, colony assay 7 days, Cell Titer Glo 6 days) is given as “sensitized these cells to trametinib”. In test [1] (in presence of IC50 concentrations of the BRAF and MEK-inhibitors), the “drug-dependent induction of GFRA2-positive cells” value is recorded as “completely inhibited emergence of drug-dependent induction of GFRA2-positive cells”.
With `CN(c1ncccc1CNc1nc(Nc2ccc3c(c2)CC(=O)N3)ncc1C(F)(F)F)S(C)(=O)=O` [PF-562271], the “drug-dependent emergence of the GFRA2-high cell population” value in test [1] (FAK inhibitor added to DT-treated MEL006 cells) is “diminished the drug-dependent emergence of the GFRA2-high cell population in a dose-dependent manner”.
Take `CC1(C)CCC(C)(C)c2cc(C3(c4ccc(C(=O)O)cc4)OCCO3)ccc21` [SR 11237]: in the test on RAR, the RAR activity entry is “devoid of any RAR activity”.
Consider `C=C(c1ccc(C(=O)O)cc1)c1cc2c(cc1C)C(C)(C)CCC2(C)C` [bexarotene], for which the GFRA2 expression levels result (in test [2]; in the test on wild-type cells (MM163)) was “increase” each time. For the same compound, the “effect on sensitivity to a combination of trametinib/FAK-inhibitors” value with MM052 melanoma cells (MM52 cells) is “increased the sensitivity”. The long-term growth inhibition entry with MM052 melanoma cells (MM52 culture, compound alone) was “did not induce measurable long-term growth inhibition”. For the same compound, the “cells in which cell death occurred” value with MM052 melanoma cells (bexarotene with trametinib/FAK-inhibitors, after 3 days of treatment (data not shown)) is listed as around 100%. The “effect on sensitivity of MM52 cells to trametinib” value in the test on MM052 melanoma cells (concentrations as low as 10 nM) is “significantly decreased the sensitivity”.
Take nivolumab: PD-1 inhibitor: the “induction of MRD subpopulations (trend)” value in test [3] was “induce at least the pigmented state and MITFmedium-hypometabolic state MRD subpopulations”.
